{"source": "patent US20110294952A1", "about": "“Optimized Drug Conjugates” (SynDevRX, priority 2010, published 2011)", "key": {"[1]": {"test": "Aqueous stability of carbamoylfumagillol in buffer", "format": "physicochemical", "settings": "for Natural Rate Constant: 37° C., 5 μM", "protocol": "At the appropriate time points, a 50 μL sample was withdrawn and diluted with three volumes of methanol containing propranolol as an internal standard (one solution was made for the entire study). The concentration of carbamoylfumagillol in the solution was analyzed by LC/MS/MS over seven days."}, "[2]": {"test_system": "A549 cells vs HUVEC cells", "test": "A549/HUVEC selectivity", "format": "cell-based, human", "settings": "ratio of IC50 values"}, "[3]": {"test_system": "A549 cells", "test": "A549 human non-small cell lung carcinoma cell viability assay (CellTiter-Glo)", "format": "cell-based", "settings": "small molecules, 72 hours", "description": "(§1) Test compounds, small molecules or polymer conjugates, were dissolved in dimethyl sulfoxide to a stock concentration of 5 mg/mL. The test agents were then diluted to an intermediate concentration at 200 μg/mL in 10% DMSO. Further dilutions were completed serially 3-fold in 10% DMSO to produce 12 decreasing concentrations for in-vitro analysis. To achieve the target concentrations of the in-vitro assays, 1 μL of the intermediate drug preparation was delivered to the cells (seeded in a volume of 50 μL). The final DMSO concentration for the tests was 0.2% for all doses of test agent.\nCells were exposed to twelve increasing concentrations of formulated test agent from 2×10^−6 to 4.0 μg/mL for 72 hours. Following 72 hour exposure, 25 μL it of CellTiter-Glo® Reagent was added to each well. The plates were incubated for 60 minutes at 37° C. in a humidified incubator. After incubation, luminescence was recorded using the Molecular Devices AnalystGT multi-mode reader.\nData are expressed as the percent cell growth of the untreated (vehicle) control calculated from the luminescence signals. The surviving fraction of cells is determined by dividing the mean luminescence values of the test agents by the mean luminescence values of untreated control. […]"}, "[4]": {"test_system": "HCT-116 cells", "test": "HCT-116 human colon tumor cell viability assay (CellTiter-Glo)", "format": "cell-based", "settings": "small molecules, 72 hours, read-out: HCT116 IC50 Average", "description": "as §1\n(§2) Data are expressed as the percent cell growth of the untreated (vehicle) control calculated from the luminescence signals. The surviving fraction of cells is determined by dividing the mean luminescence values of the test agents by the mean luminescence values of untreated control. The inhibitory concentration value for the test agent(s) and control were estimated using Prism 5 software (GraphPad Software, Inc.) by curve-fitting the data using the non-linear regression analysis.\nThe human tumor cell lines A549 and HCT-116 were obtained from American Type Culture Collection (Manassas, Va.). […]\nCells were exposed to twelve increasing concentrations of formulated test agent from 2.3×10^−6 to 4.02 μg/mL for 72 hours. […] After incubation, luminescence was recorded using the Molecular Devices AnalystGT multi-mode reader."}, "[5]": {"test_system": "HUVEC cells", "test": "Human umbilical vein epithelial cell viability assay (CellTiter-Glo)", "format": "cell-based", "settings": "small molecules, 72 hours", "description": "as §1, §2\nThe Human umbilical vein epithelial cells (HUVEC) were obtained from Lonza (Basel, Switzerland). […]\nHUVEC cells were seeded at 1000 cells per well 24 hours prior to test agent exposure in a volume of 50 μL. […] After incubation, luminescence was recorded using the Molecular Devices AnalystGT multi-mode reader."}, "[6]": {"test": "In vivo pharmacokinetics of polymer conjugate", "set-up": "species or system Sprague-Dawley rats", "settings": "SDX-7539 single bolus IV 30 mg/kg, rat plasma", "description": "FIG. 6 is a graph showing the plasma concentration of the active metabolite, SDX-7539, as a function of time in Sprague-Dawley rats, to which either the polymer conjugate SDX-7320 (single bolus, intravenous injection, 200 mg/kg) or the small molecule SDX-7539 (single bolus, intravenous injection, 30 mg/kg) has been administered.\nThe polymer conjugate, SDX-7320, or the in vivo release product, SDX-7539 were administered to Sprague-Dawley rats (N=3). Blood was collected over 48 hours after dosing to determine the plasma concentration of SDX-7539 by LC-MS/MS. The LLOQ for SDX-7539 was 2.5 nM. The terminal elimination half-life for SDX-7539 was estimated by fitting a linear regression to the ln [SDX-7539] versus time data. […] Cmax for the polymer is about 2% of the value for the small molecule."}, "[7]": {"test_system": "A549 cells", "format": "in vitro ADME, human", "description": "Cells were treated as in Example 51 except that at the end of 72 hour exposure to test agent, the cells were frozen (−70° C.) and stored for subsequent evaluation by LC/MS."}}, "data": [{"compound": "CO[C@@H]1[C@H](OC(N)=O)CC[C@]2(CO2)[C@H]1[C@@]1(C)O[C@@H]1CC=C(C)C", "note": "[Compound O-7127-1, Carbamoylfumagillol]", "values": [{"measurement": "Natural Rate Constant", "setting": "[1]; pH 4.0 sodium acetate buffer", "value": 0.0054, "unit": "h⁻¹"}, {"measurement": "Natural Rate Constant", "setting": "[1]; pH 5.3 sodium acetate buffer", "value": 0.0017, "unit": "h⁻¹"}, {"measurement": "decomposition over the seven day period", "setting": "[1]; pH 5.3 to 8.0, 37° C., seven days", "value": "less than 20%"}, {"measurement": "Natural Rate Constant", "setting": "[1]; pH 6.7 potassium phosphate buffer", "value": 0.0010, "unit": "h⁻¹"}, {"measurement": "Natural Rate Constant", "setting": "[1]; pH 8.0 potassium phosphate buffer", "value": 0.0011, "unit": "h⁻¹"}, {"measurement": "A549/HUVEC IC50 ratio", "setting": "[2]", "value": 33.63}]}, {"compound": "CO[C@@H]1[C@H](OC(=O)N[C@@H](C(N)=O)C(C)C)CC[C@]2(CO2)[C@H]1[C@@]1(C)O[C@@H]1CC=C(C)C", "note": "[Compound O-7177, PPI-2458]", "values": [{"measurement": "IC50", "setting": "[3]", "value": 0.215, "unit": "ng/mL"}, {"measurement": "IC50", "setting": "[4]", "value": 0.236, "unit": "ng/mL"}, {"measurement": "IC50", "setting": "[5]", "value": 0.101, "unit": "ng/mL"}]}, {"compound": "CO[C@@H]1[C@H](OC(=O)NC2CCC(N)CC2)CC[C@]2(CO2)[C@H]1[C@@]1(C)O[C@@H]1CC=C(C)C", "note": "(stereo partly drawn) [SDX-7539]", "values": [{"measurement": "Cmax", "setting": "[6]", "value": "~15", "unit": "µM"}, {"measurement": "half-life of SDX-7539", "setting": "[6]", "value": "10 to 15", "unit": "min"}]}, {"compound": "poly[HPMA-co-MA-GFLG-N-(6-aminohexyl)carbamoylfumagillol]", "values": [{"measurement": "metabolites identified from treated cells", "setting": "[7]", "value": "N-(6-aminohexyl)carbamoylfumagillol, fumagill-6-yl {6-[(aminoacetyl)amino]hexyl}carbamate, and the epoxide hydrolysis product, (3S,7aR)-7a-(hydroxymethyl)-4-methoxy-3-methyl-2-(3-methylbut-2-en-1-yl)octahydro-1-benzofuran-3-ol-5-yl 6-aminohexyl carbamate"}]}]}
